Measurements taken from ChEMBL document CHEMBL5360641, “4'-Ethynyl-2'-deoxy-2'-β-fluoro-2-fluoroadenosine: A Highly Potent and Orally Available Clinical Candidate for the Treatment of HIV-1 Infection” (J Med Chem, 2023).

Tests used:
[1] = system: Human immunodeficiency virus 1; assay: Antiviral activity against HIV1 VSV-G pseudotyped virus infected in human HEK293T cells assessed as inhibition of viral growth preincubated for 3 hrs followed by washout and further incubated with compound for 72 hrs by luciferase assay; assay type: functional, organism-based; details: Human immunodeficiency virus 1, HEK-293T
[2] = Cytotoxicity against HEK293T cells assessed as reduction in cell viability by MTT assay; assay type: toxicity, cell-based, HEK-293T; details: human
[3] = Selectivity index, ratio of CC50 for cytotoxicity against HEK293T cells assessed as reduction in cell viability by MTT assay to EC50 for antiviral activity against HIV1 VSV-G pseudotyped virus infected in human HEK293T cells assessed as inhibition of viral growth; assay type: toxicity, cell-based; details: read-out: Ratio CC50/EC50

Q: For `COc1nc(N)c2ncn([C@@H]3O[C@@](CO)(N=[N+]=[N-])[C@@H](O)[C@@H]3F)c2n1`, which EC50 [1] is on record?
A: The EC50 was 4.46 nM.

Q: What about the CC50 [2] of the same molecule?
A: The CC50 was > 100000 nM.

Q: And the selectivity ratio [3]?
A: The selectivity ratio was > 22400.
